Read-outs that look alike come from different tables or passages of the source.
What was measured:
[1] = target: orexin-1 (Homo sapiens (Human), UniProt O43613); assay: Intracellular calcium measurement (FLIPR), CHO cells expressing human orexin-1 receptor, 3 nM orexin-A; format: cell-based; conditions: read-out: IC50 OX1
Protocol: (§1) In Vitro Assay: Intracellular Calcium Measurements:
(§2) Chinese hamster ovary (CHO) cells expressing the human orexin-1 receptor and the human orexin-2 receptor, respectively, are grown in culture medium (Ham F-12 with L-Glutamine) containing 300 μg/mL G418, 100 U/mL penicillin, 100 μg/mL streptomycin and 10% heat inactivated fetal calf serum (FCS). The cells are seeded at 20,000 cells/well into 384-well black clear bottom sterile plates (Greiner). The seeded plates are incubated overnight at 37° C. in 5% CO2.
(§3) Human orexin-A as an agonist is prepared as 1 mM stock solution in MeOH: water (1:1), diluted in HBSS containing 0.1% bovine serum albumin (BSA), NaHCO3: 0.375 g/L and 20 mM HEPES for use in the assay at a final concentration of 3 nM.
(§4) Antagonists are prepared as 10 mM stock solution in DMSO, then diluted in 384-well plates using DMSO followed by a transfer of the dilutions into in HBSS containing 0.1% bovine serum albumin (BSA), NaHCO3: 0.375 g/L and 20 mM HEPES. On the day of the assay, 50 μL of staining buffer (HBSS containing 1% FCS, 20 mM HEPES, NaHCO3: 0.375 g/L, 5 mM probenecid (Sigma) and 3 μM of the fluorescent calcium indicator fluo-4 AM (1 mM stock solution in DMSO, containing 10% pluronic) is added to each well. The 384-well cell-plates are incubated for 50 min at 37° C. in 5% CO2 followed by equilibration at rt for 30 min before measurement.
(§5) Within the Fluorescent Imaging Plate Reader (FLIPR Tetra, Molecular Devices), antagonists are added to the plate in a volume of 10 μL/well, incubated for 120 min and finally 10 μL/well of agonist is added. Fluorescence is measured for each well at 1 second intervals, and the height of each fluorescence peak is compared to the height of the fluorescence peak induced by 3 nM orexin-A with vehicle in place of antagonist. […] Optimized conditions were achieved by adjustment of pipetting speed and cell splitting regime. The calculated IC50 values may fluctuate depending on the daily cellular assay performance. Fluctuations of this kind are known to those skilled in the art.

[2] = target: human orexin-2 receptor (Homo sapiens (Human), UniProt O43614); assay: Intracellular calcium measurement (FLIPR), CHO cells expressing human orexin-2 receptor, 3 nM orexin-A; format: cell-based; conditions: read-out: IC50 OX2
Protocol: as §1, §2, §3, §4, §5

[3] = CHO cells expressing human orexin-1 receptor, FLIPR, 3 nM orexin-A, geometric mean if determined several times
[4] = CHO cells expressing human orexin-2 receptor, FLIPR, 3 nM orexin-A, geometric mean if determined several times

Sequence of human orexin-2 receptor (O43614 whole entry): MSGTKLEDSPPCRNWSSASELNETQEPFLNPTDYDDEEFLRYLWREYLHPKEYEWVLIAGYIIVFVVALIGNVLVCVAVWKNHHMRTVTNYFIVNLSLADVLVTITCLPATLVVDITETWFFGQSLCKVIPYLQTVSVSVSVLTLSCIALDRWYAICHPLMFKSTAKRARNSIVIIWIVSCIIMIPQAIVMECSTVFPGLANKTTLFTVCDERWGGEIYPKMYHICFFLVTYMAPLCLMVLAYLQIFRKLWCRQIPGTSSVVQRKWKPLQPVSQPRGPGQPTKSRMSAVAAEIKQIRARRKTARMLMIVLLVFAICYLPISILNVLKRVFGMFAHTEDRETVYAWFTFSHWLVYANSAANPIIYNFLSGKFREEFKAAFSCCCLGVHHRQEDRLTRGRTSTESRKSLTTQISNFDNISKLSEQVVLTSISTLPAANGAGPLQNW
Sequence of orexin-1 (O43613 whole entry): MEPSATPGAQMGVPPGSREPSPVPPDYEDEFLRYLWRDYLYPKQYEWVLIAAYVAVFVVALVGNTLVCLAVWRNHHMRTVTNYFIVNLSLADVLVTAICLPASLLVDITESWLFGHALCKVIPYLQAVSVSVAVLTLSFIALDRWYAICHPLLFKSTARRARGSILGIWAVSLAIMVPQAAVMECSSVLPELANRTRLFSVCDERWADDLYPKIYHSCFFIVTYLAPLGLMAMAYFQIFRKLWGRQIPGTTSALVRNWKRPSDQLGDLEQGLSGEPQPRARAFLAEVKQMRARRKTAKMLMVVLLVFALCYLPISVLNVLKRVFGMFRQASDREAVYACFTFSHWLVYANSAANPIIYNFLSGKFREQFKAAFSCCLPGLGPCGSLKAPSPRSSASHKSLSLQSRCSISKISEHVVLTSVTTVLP

Row | Compound | IC50 [1, 3] | IC50 [2, 4] | IC50 [1] | IC50 [2]
1 | Furan-3-yl-[(S)-2-(3-phenyl-[1,2,4]oxadiazol-5-yl)-pyrrolidin-1-yl]-methanone [Reference compound 4, reference compound] |  | 897 nM | > 5040 nM | 
2 | {(S)-2-[5-(3-Chloro-2-methyl-phenyl)-[1,2,4]oxadiazol-3-yl]-pyrrolidin-1-yl}-[3-(2-chloro-phenyl)-5-methyl-isoxazol-4-yl]-methanone [Reference compound 8, reference compound] | 156 nM | 74 nM |  | 
3 | {(S)-2-[3-(3-Chloro-phenyl)-[1,2,4]oxadiazol-5-yl]-pyrrolidin-1-yl}-furan-3-yl-methanone [Reference compound 5, reference compound] | 403 nM | 554 nM |  | 
4 | Cc1c(Cl)cccc1-c1nnc([C@]2(C)CCCN2C(=O)c2ccc(Cl)cc2-n2nccn2)[nH]1 [compound 555] | 27 nM | 11 nM |  | 
5 | COc1cc(C(=O)N2CCC[C@H]2c2nnc(-c3cccc(Cl)c3C)o2)c(-n2nccn2)cc1Cl [compound 446] | 82 nM | 6 nM |  | 
6 | COc1cccc(-c2nc([C@@H]3CCCN3C(=O)c3ccc(Cl)cc3-n3nccn3)no2)c1C [compound 362] | 171 nM |  |  | 100 nM
7 | COc1cc(C(=O)N2CCC[C@H]2c2nc(-c3ccccc3OC(F)(F)F)no2)c(-n2nccn2)cc1Cl [compound 281] | 42 nM | 17 nM |  | 
8 | O=C(c1ccc(Cl)cc1-n1nccn1)N1CCC[C@H]1c1noc(-c2ccccc2OC(F)(F)F)n1 [compound 376] |  | 11 nM | 23 nM | 
9 | COc1ccc(-c2ccccc2)c(C(=O)N2CCC[C@H]2c2nc(-c3ccccc3OC(F)(F)F)no2)c1 [compound 152, (4-Methoxy-biphenyl-2-yl)-{(S)-2-[3-(2-trifluoromethoxy-phenyl)-[1,2,4]oxadiazol-5-yl]-pyrrolidin-1-yl}-methanone] | 9 nM | 35 nM |  | 
10 | COc1ccc(-n2nccn2)c(C(=O)N2CCC[C@H]2c2nc(-c3cccc(Cl)c3C)no2)c1 [compound 100] |  | 8 nM | 92 nM | 
11 | Cc1onc(-c2ccccc2Cl)c1C(=O)N1CCC[C@H]1c1nc(-c2ccccc2OC(F)(F)F)no1 [Ref 10] | 782 nM | 2190 nM |  | 

Continued, in another order:

Row | IC50 [1, 3] | IC50 [2, 4] | Compound | IC50 [1] | IC50 [2]
12 | 190 nM | 91 nM | O=C(c1cccc(F)c1-c1ccn[nH]1)N1CCC[C@H]1c1nc(-c2ccccc2C(F)(F)F)no1 [compound 183, [3-Fluoro-2-(2H-pyrazol-3-yl)-phenyl]-{(S)-2-[3-(2-trifluoromethyl-phenyl)-[1,2,4]oxadiazol-5-yl]-pyrrolidin-1-yl}-methanone] |  | 
13 | 10 nM | 2 nM | Cc1ccc(-n2nccn2)c(C(=O)N2CCC[C@H]2c2ncc(-c3ccccc3OC(F)(F)F)[nH]2)c1 [compound 529, (5-Methyl-2-[1,2,3]triazol-2-yl-phenyl)-{(S)-2-[5-(2-trifluoromethoxy-phenyl)-1H-imidazol-2-yl]-pyrrolidin-1-yl}-methanone] |  | 
14 | 1420 nM | 361 nM | Cc1ccc(-n2nccn2)c(C(=O)N2CCC[C@H]2c2nc(-c3ccc(C)c(C)n3)no2)c1 [compound 63, {(S)-2-[3-(5,6-Dimethyl-pyridin-2-yl)-[1,2,4]oxadiazol-5-yl]-pyrrolidin-1-yl}-(5-methyl-2-[1,2,3]triazol-2-yl-phenyl)-methanone] |  | 
15 | 128 nM | 10 nM | COc1cc(C(=O)N2CCC[C@H]2c2noc(-c3cccc(OC)c3C)n2)c(-n2nccn2)cc1C [compound 358, {(S)-2-[5-(3-Methoxy-2-methyl-phenyl)-[1,2,4]oxadiazol-3-yl]-pyrrolidin-1-yl}-(5-methoxy-4-methyl-2-[1,2,3]triazol-2-yl-phenyl)-methanone] |  | 
16 | 33 nM | 1 nM | COc1cc(C(=O)N2CCC[C@H]2c2nnc(-c3cccc(Cl)c3OC)[nH]2)c(-n2nccn2)cc1Cl [compound 491, {(S)-2-[5-(3-Chloro-2-methoxy-phenyl)-4H-[1,2,4]triazol-3-yl]-pyrrolidin-1-yl}-(4-chloro-5-methoxy-2-[1,2,3]triazol-2-yl-phenyl)-methanone] |  | 
17 | 457 nM | 341 nM | O=C(c1cc(OC(F)(F)F)ccc1-n1nccn1)N1CCC[C@H]1c1nc(-c2ccccc2OC(F)(F)F)no1 [compound 150, (2-[1,2,3]Triazol-2-yl-5-trifluoromethoxy-phenyl)-{(S)-2-[3-(2-trifluoromethoxy-phenyl)-[1,2,4]oxadiazol-5-yl]-pyrrolidin-1-yl}-methanone] |  | 
18 | 704 nM | 209 nM | Cc1ccc(-n2nccn2)c(C(=O)N2CCC[C@H]2c2nnc(-c3ccccc3)[nH]2)c1 [Example 463, (5-Methyl-2-[1,2,3]triazol-2-yl-phenyl)-[(S)-2-(5-phenyl-4H-[1,2,4]triazol-3-yl)-pyrrolidin-1-yl]-methanone] |  | 
19 | 812 nM | 181 nM | COc1cccc(-c2nnc([C@@H]3CCCN3C(=O)c3cc(C)ccc3-n3nccn3)[nH]2)c1 [compound 513, {(S)-2-[5-(3-Methoxy-phenyl)-4H-[1,2,4]triazol-3-yl]-pyrrolidin-1-yl}-(5-methyl-2-[1,2,3]triazol-2-yl-phenyl)-methanone] |  | 
20 | 4 nM | 1 nM | CCOc1ccccc1-c1noc([C@@H]2CCCN2C(=O)c2cc(C)c(C)cc2-n2nccn2)n1 [compound 257, (4,5-Dimethyl-2-[1,2,3]triazol-2-yl-phenyl)-{(S)-2-[3-(2-ethoxy-phenyl)-[1,2,4]oxadiazol-5-yl]-pyrrolidin-1-yl}-methanone] |  | 
21 | 27 nM | 4 nM | CCOc1ccccc1-c1noc([C@@H]2CCCN2C(=O)c2cc(OC)c(C)cc2-n2nccn2)n1 [compound 258, {(S)-2-[3-(2-Ethoxy-phenyl)-[1,2,4]oxadiazol-5-yl]-pyrrolidin-1-yl}-(5-methoxy-4-methyl-2-[1,2,3]triazol-2-yl-phenyl)-methanone] |  | 
22 | 377 nM | 29 nM | COc1cc(C(=O)N2CCC[C@H]2c2noc(-c3cccc(F)c3C)n2)c(-n2nccn2)cc1F [compound 372, (4-Fluoro-5-methoxy-2-[1,2,3]triazol-2-yl-phenyl)-{(S)-2-[5-(3-fluoro-2-methyl-phenyl)-[1,2,4]oxadiazol-3-yl]-pyrrolidin-1-yl}-methanone] |  | 
23 | 535 nM | 326 nM | Cc1cc(C)cc(-c2nnc([C@@H]3CCCN3C(=O)c3cc(C)ccc3-n3nccn3)o2)c1 [Example 451, {(S)-2-[5-(3,5-Dimethyl-phenyl)-[1,3,4]oxadiazol-2-yl]-pyrrolidin-1-yl}-(5-methyl-2-[1,2,3]triazol-2-yl-phenyl)-methanone] |  | 
24 | 17 nM | 17 nM | CCc1ccccc1-c1nc([C@@H]2CCCN2C(=O)c2ccc(C)cc2-n2nccn2)no1 [compound 392, {(S)-2-[5-(2-Ethyl-phenyl)-[1,2,4]oxadiazol-3-yl]-pyrrolidin-1-yl}-(4-methyl-2-[1,2,3]triazol-2-yl-phenyl)-methanone] |  | 
25 | 67 nM | 28 nM | CCOc1ncccc1-c1cc([C@@H]2CCCN2C(=O)c2cc(C)ccc2-n2nccn2)on1 [compound 428, {(S)-2-[3-(2-Ethoxy-pyridin-3-yl)-isoxazol-5-yl]-pyrrolidin-1-yl}-(5-methyl-2-[1,2,3]triazol-2-yl-phenyl)-methanone] |  | 
26 | 112 nM | 108 nM | COc1ccc2[nH]cc(-c3noc([C@@H]4CCCN4C(=O)c4cc(C)ccc4-n4nccn4)n3)c2c1 [compound 42, {(S)-2-[3-(5-Methoxy-1H-indol-3-yl)-[1,2,4]oxadiazol-5-yl]-pyrrolidin-1-yl}-(5-methyl-2-[1,2,3]triazol-2-yl-phenyl)-methanone] |  | 
27 | 11 nM | 2 nM | CCOc1c(F)cccc1-c1nc([C@@H]2CCCN2C(=O)c2cc(C)ccc2-n2nccn2)no1 [compound 319, {(S)-2-[5-(2-Ethoxy-3-fluoro-phenyl)-[1,2,4]oxadiazol-3-yl]-pyrrolidin-1-yl}-(5-methyl-2-[1,2,3]triazol-2-yl-phenyl)-methanone] |  | 
28 | 5 nM | 2 nM | CCOc1ncccc1-c1nc([C@@H]2CCCN2C(=O)c2cc(C)ccc2-n2nccn2)no1 [compound 330, {(S)-2-[5-(2-Ethoxy-pyridin-3-yl)-[1,2,4]oxadiazol-3-yl]-pyrrolidin-1-yl}-(5-methyl-2-[1,2,3]triazol-2-yl-phenyl)-methanone] |  | 

Source: patent publication US9493446B2, “Orexin receptor antagonists which are [ortho bi-(hetero-)aryl]-[2-(meta bi-(hetero-)aryl)-pyrrolidin-1-yl]-methanone derivatives” (Actelion Pharmaceuticals Ltd, priority 2012, dated 2016)
